pIC50: −log10 of the molar value.
These compounds were tested against T1, full length SGK1 (Homo sapiens, UniProt O00141) (assay: SGK1 inhibition Assay A (Caliper LabChip electrophoretic separation of fluorescent peptide substrate and phosphorylated product)). Conditions: Assay A; 20 μM ATP, 40 min incubation; read-out: SGK1 IC50.
T1 construct: 125 μM full length SGK1 (Life Technologies Part #PR7358A); purchased Life Technologies PR7358A
T1 sequence (O00141 1-431): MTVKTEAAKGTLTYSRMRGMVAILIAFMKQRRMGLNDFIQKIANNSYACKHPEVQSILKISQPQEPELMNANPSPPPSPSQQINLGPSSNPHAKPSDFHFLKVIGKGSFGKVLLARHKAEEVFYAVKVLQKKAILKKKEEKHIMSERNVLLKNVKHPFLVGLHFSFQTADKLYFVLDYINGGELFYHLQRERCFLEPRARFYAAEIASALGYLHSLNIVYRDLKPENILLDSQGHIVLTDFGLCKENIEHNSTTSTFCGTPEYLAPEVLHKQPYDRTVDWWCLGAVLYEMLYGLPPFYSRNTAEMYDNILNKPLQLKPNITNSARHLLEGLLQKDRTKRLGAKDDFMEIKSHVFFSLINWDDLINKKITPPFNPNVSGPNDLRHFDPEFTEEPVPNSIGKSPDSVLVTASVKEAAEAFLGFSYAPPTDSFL
Assay type: biochemical
Nc1ncnn2c(-c3ccnc(C(F)F)c3)cc(N3CCC[C@@H](NC(=O)c4cc5ccccc5s4)C3)c12 [Example 645, (R)-N-(1-(4-amino-7-(2-(difluoromethyl)pyridin-4-y1)pyrrolo[2,1-f][1,2,4]triazin-5-y1)piperidin-3-yl)benzo[b]thiophene-2-carboxamide] was tested, and the pIC50 was 8.40. Nc1ncnn2c(-c3cncnc3)cc(N3CCC[C@@H](NC(=O)c4cc5ccccc5s4)C3)c12 [Example 646, (R)-N-(1-(4-amino-7-(pyrimidin-5-yl)pyrrolo[2,1-f][1,2,4]triazin-5-yl)piperidin-3-yl)benzo[b]thiophene-2-carboxamide] showed a pIC50 of 8.10. For N#Cc1ccc(-c2cc(N3CCC[C@@H](NC(=O)c4nc5ccccc5s4)C3)c3c(N)ncnn23)cn1 [Example 647, (R)-N-(1-(4-amino-7-(6-cyanopyridin-3-yl)pyrrolo[2,1-f][1,2,4]triazin-5-yl)piperidin-3-yl)benzo[d]thiazole-2-carboxamide], the pIC50 was 7.20. Compound N#Cc1ccc(-c2cc(N3CCC[C@@H](NC(=O)c4n[nH]c5ccccc45)C3)c3c(N)ncnn23)cn1 [Example 648, (R)-N-(1-(4-amino-7-(6-cyanopyridin-3-yl)pyrrolo[2,1-f][1,2,4]triazin-5-yl)piperidin-3-y1)-1H-indazole-3-carboxamide] has a pIC50 of 6.98. With N#Cc1ccc(-c2cc(N3CCC[C@@H](NC(=O)c4cc5ccccc5o4)C3)c3c(N)ncnn23)cn1 [Example 649] the pIC50 was 8.22. Compound N#Cc1ccc(-c2cc(N3CCC[C@@H](NC(=O)c4nc5ccccc5o4)C3)c3c(N)ncnn23)cn1 [Example 650, (R)-N-(1-(4-amino-7-(6-cyanopyridin-3-yl)pyrrolo[2,1-f][1,2,4]triazin-5-yl)piperidin-3-yl)benzo[d]oxazole-2-carboxamide] has a pIC50 of 7.27. In the case of COC(=O)N1CC=C(c2cc(N3CCC[C@@H](NC(=O)c4sc5ccccc5c4OC4CCN(C(=O)OC(C)(C)C)CC4)C3)c3c(N)ncnn23)C1 [Example 651, ter-butyl (R)-4-((2-((1-(4-amino-7-(1-(methoxycarbonyl)-2,5-dihydro-1H-pyrrol-3-yl)pyrrolo[2,1-f][1,2,4]triazin-5-yl)piperidin-3-yl)carbamoyl)benzo[b]thiophen-3-yl)oxy)piperidine-1-carboxylate], the pIC50 was 7.00. For COC(=O)N1CC=C(c2cc(N3CCC[C@@H](NC(=O)c4sc5ccccc5c4OC4CCNCC4)C3)c3c(N)ncnn23)C1 [Example 652, methyl (R)-3-(4-amino-5-(3-(3-(piperidin-4-yloxy)benzo[b]thiophene-2-carboxamido)piperidin-1-yl)pyrrolo[2,1-f][1,2,4]triazin-7-yl)-2,5-dihydro-1H-pyrrole-1-carboxylate], the pIC50 was 8.00. CC(=O)N1CC=C(c2cc(N3CCC[C@@H](NC(=O)c4sc5ccccc5c4OC4CCN(C(=O)OC(C)(C)C)CC4)C3)c3c(N)ncnn23)C1 [Example 653, tert-butyl (R)-4-((2-((1-(7-(1-acetyl-2,5-dihydro-1H-pyrrol-3-yl)-4-aminopyrrolo[2,1-f][1,2,4]triazin-5-yl)piperidin-3-yl)carbamoyl)benzo[b]thiophen-3-yl)oxy)piperidine-1-carboxylate] showed a pIC50 of 7.29. CC(C)(C)OC(=O)N1CCC(Oc2c(C(=O)N[C@@H]3CCCN(c4cc(-c5ccc(C#N)nc5)n5ncnc(N)c45)C3)sc3ccccc23)CC1 [Example 654, tert-butyl (R)-4-((2-((1-(4-amino-7-(6-cyanopyridin-3-yl)pyrrolo[2,1-f][1,2,4]triazin-5-yl)piperidin-3-yl)carbamoyl)benzo[b]thiophen-3-yl)oxy)piperidine-1-carboxylate] was tested, and the pIC50 was 7.24. CC(=O)N1CC=C(c2cc(N3CCC[C@@H](NC(=O)c4sc5ccccc5c4OC4CCNCC4)C3)c3c(N)ncnn23)C1 [Example 655, (R)—N-(1-(7-(1-acetyl-2,5-dihydro-1H-pyrrol-3-yl)-4-aminopyrrolo[2,1-f][1,2,4]triazin-5-yl)piperidin-3-yl)-3-(piperidin-4-yloxy)benzo[b]thiophene-2-carboxamide] was tested, and the pIC50 was 8.05. With N#Cc1ccc(-c2cc(N3CCC[C@@H](NC(=O)c4sc5ccccc5c4OC4CCNCC4)C3)c3c(N)ncnn23)cn1 [Example 656, (R)—N-(1-(4-amino-7-(6-cyanopyridin-3-yl)pyrrolo[2,1-f][1,2,4]triazin-5-yl)piperidin-3-yl)-3-(piperidin-4-yloxy)benzo[b]thiophene-2-carboxamide] the pIC50 was 8.52. With Nc1ncnn2c(-c3cncnc3)cc(N3CCC[C@@H](NC(=O)c4sc5ccccc5c4OC4CCNCC4)C3)c12 [Example 657, (R)—N-(1-(4-amino-7-(pyrimidin-5-yl)pyrrolo[2,1-f][1,2,4]triazin-5-yl)piperidin-3-yl)-3-(piperidin-4-yloxy)benzo[b]thiophene-2-carboxamide] the pIC50 was 7.29. Compound COC(=O)N1CC=C(c2cc(N3CCC[C@@H](NC(=O)c4sc5ccccc5c4OC4CCN(C)CC4)C3)c3c(N)ncnn23)C1 [Example 658, methyl (R)-3-(4-amino-5-(3-(3-((1-methylpiperidin-4-yl)oxy)benzo[b]thiophene-2-carboxamido)piperidin-1-yl)pyrrolo[2,1-f][1,2,4]triazin-7-yl)-2,5-dihydro-1H-pyrrole-1-carboxylate] has a pIC50 of 7.74. COC(=O)N1CC=C(c2cc(N3CCC[C@@H](NC(=O)c4sc5ccccc5c4OC4CCN(C(C)C)CC4)C3)c3c(N)ncnn23)C1 [Example 659, methyl (R)-3-(4-amino-5-(3-(3-((1-isopropylpiperidin-4-yl)oxy)benzo[b]thiophene-2-carboxamido)piperidin-1-yl)pyrrolo[2,1-f][1,2,4]triazin-7-yl)-2,5-dihydro-1H-pyrrole-1-carboxylate] was tested, and the pIC50 was 8.15. For COC(=O)N1CC=C(c2cc(N3CCC[C@@H](NC(=O)c4sc5ccccc5c4OC4CCN(CCO)CC4)C3)c3c(N)ncnn23)C1 [Example 660, methyl (R)-3-(4-amino-5-(3-(3-((1-(2-hydroxyethyl)piperidin-4-yl)oxy)benzo[b]thiophene-2-carboxamido)piperidin-1-yl)pyrrolo[2,1-f][1,2,4]triazin-7-yl)-2,5-dihydro-1H-pyrrole-1-carboxylate], the pIC50 was 8.70. COC(=O)N1CC=C(c2cc(N3CCC[C@@H](NC(=O)c4sc5ccccc5c4OCCN(C)C)C3)c3c(N)ncnn23)C1 [Example 661, Methyl (R)-3-(4-amino-5-(3-(3-(2-(dimethylamino)ethoxy)benzo[b]thiophene-2-carboxamido)piperidin-1-yl)pyrrolo[2,1-f][1,2,4]triazin-7-yl)-2,5-dihydro-1H-pyrrole-1-carboxylate] gave a pIC50 of 7.89. Compound CC(=O)N1CC=C(c2cc(N3CCC[C@@H](NC(=O)c4sc5ccccc5c4OCCN(C)C)C3)c3c(N)ncnn23)C1 [Example 662, (R)-N-(1-(7-(1-acetyl-2,5-dihydro-1H-pyrrol-3-yl)-4-aminopyrrolo[2,1-f][1,2,4]triazin-5-yl)piperidin-3-yl)-3-(2-(dimethylamino)ethoxy)benzo[b]thiophene-2-carboxamide] has a pIC50 of 7.80. CN(C)CCOc1c(C(=O)N[C@@H]2CCCN(c3cc(-c4ccc(C(N)=O)nc4)n4ncnc(N)c34)C2)sc2ccccc12 [Example 664, (R)-5-(4-amino-5-(3-(3-(2-(dimethylamino)ethoxy)benzo[b]thiophene-2-carboxamido)piperidin-1-yl)pyrrolo[2,1-f][1,2,4]triazin-7-yl)picolinamide] showed a pIC50 of 7.89.

— patent US20260250290A1 (BRISTOL-MYERS SQUIBB COMPANY, priority 2023, published 2026)
